Test results published in patent US12343403B2, “Targeted ligand-payload based drug delivery for cell therapy” (Purdue Research Foundation, priority 2017, dated 2025).
“Also recorded” adds a separate entry of the source.

Key:
[1] = system: 4M5.3FR+ human T cells; test: Cell viability assay, 4M5.3FR+ human T cells; format: cell-based
[2] = system: 4M5.3FR+ population in a mixed human T cell culture; test: Killing of 4M5.3FR+ population in a mixed human T cell culture; format: cell-based
[3] = system: FMC63+4M5.3FR+hT cell towards Raji cell; test: CAR T cell lysis effect, FMC63+4M5.3FR+ hT cell towards Raji cell; format: cell-based, human
Description: 1×10^5 CAR T and certain number of Raji cell were co-incubated in 96 well plate, according to the E:T ratio, with or without the treatment drug. After 24 h, 100 ul supernatant were taken out for LDH assay. Lysis percentage were calculated as (treatment group-CAR T only)/(maximum lysis-CAR T only) %

[4] = target: T1, FKBPFR3GS fusion receptor (Homo sapiens, UniProt P62942); test: Binding assay of ligand-dye on FKBPFR3GS (FF3) fusion receptor stably expressed on human T cell, flow cytometry
T1 construct: human FRa signal peptide (1-24 aa of human FRa) (N); expressed in transfected cells; host or cells: human T cells / Jurkat T cells, lentiviral transduction
Description: For binding assay, cells were incubated with ligand-dye alone or with ligand-dye and free ligands (100×, preincubated for 30 min) for 30 min, at 4 degree. Cells were washed 3 times after incubation, and re-suspended in 2% FBS PBS, 7-AAD were added to gate out the dead cells. […] FRET is visualized by the loss of intensity of FA-Rhodamine as its energy transferred to FA-OTL38 on the same or nearby receptor, detected by BD Fortessa flow cytometer. Results were analyzed using Flow Jo software.
For binding assay, cells were incubated with ligand-dye alone or with ligand-dye and free ligands (100×, preincubated for 30 min) for 30 min, at 4 degree. Cells were washed 3 times after incubation, and re-suspended in 2% FBS PBS, 7-AAD were added to gate out the dead cells. BD Fortessa flow cytometer were used. Results were analyzed using FlowJo software.

[5] = target: T2, FKBP51 (Homo sapiens, UniProt Q13451); conditions: read-out: KD FK506; cited from earlier work
T2 sequence (Q13451 1-457): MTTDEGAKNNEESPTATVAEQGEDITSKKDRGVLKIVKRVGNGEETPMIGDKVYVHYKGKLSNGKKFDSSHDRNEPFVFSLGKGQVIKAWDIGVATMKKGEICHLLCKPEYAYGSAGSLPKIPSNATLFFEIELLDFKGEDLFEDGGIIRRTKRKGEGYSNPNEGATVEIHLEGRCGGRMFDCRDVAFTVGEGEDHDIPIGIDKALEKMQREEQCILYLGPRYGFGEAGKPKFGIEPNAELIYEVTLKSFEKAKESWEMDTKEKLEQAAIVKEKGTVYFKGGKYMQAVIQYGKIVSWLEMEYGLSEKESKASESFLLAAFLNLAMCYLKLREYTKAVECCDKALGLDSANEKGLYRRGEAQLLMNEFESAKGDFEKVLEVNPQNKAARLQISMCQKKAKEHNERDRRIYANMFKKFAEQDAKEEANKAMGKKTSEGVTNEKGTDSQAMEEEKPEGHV

[6] = target: T3, FKBPFR1GS fusion receptor (Homo sapiens, UniProt P62942); test: Interference/FRET binding assay in FKBPFR1GS (FF1) fusion receptor Jurkat cells
T3 construct: human FRa signal peptide (1-24 aa of human FRa) (N); expressed in transfected cells; host or cells: Jurkat cells, lentiviral transduction
Description: Cells were washed 3 times after incubation, and re-suspended in 2% FBS PBS, 7-AAD were added to gate out the dead cells. […] Results were analyzed using Flow Jo software. […]

[7] = system: FF3+ human T cell; conditions: 100× preincubation with FA
Description: Cells were seeded to 96 well plate and incubated with different concentration of certain ligand-cytotoxic drug for 2 h, with or without 100× preincubation of the free ligand competition. After 2 h incubation, cells were washed by warm medium 3 times and replenished with fresh medium. After 72 h, cell number were tested by CellTiter-Glo® assay (G7570, Promega) or quantified by ligand-dye staining of receptor positive cell.

[8] = scFv against FITC; cited from earlier work

T3 sequence (P62942 with tags, fused parts or gaps): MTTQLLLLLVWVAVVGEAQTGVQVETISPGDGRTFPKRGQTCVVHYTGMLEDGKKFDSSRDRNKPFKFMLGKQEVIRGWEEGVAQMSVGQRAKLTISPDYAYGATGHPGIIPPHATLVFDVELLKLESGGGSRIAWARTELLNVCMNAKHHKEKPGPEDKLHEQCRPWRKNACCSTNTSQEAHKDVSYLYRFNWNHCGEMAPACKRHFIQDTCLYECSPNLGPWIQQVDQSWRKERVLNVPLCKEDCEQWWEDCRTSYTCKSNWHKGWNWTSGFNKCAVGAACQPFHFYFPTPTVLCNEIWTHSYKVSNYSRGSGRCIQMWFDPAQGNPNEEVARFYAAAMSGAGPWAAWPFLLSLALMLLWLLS
T1 sequence (P62942 with tags, fused parts or gaps): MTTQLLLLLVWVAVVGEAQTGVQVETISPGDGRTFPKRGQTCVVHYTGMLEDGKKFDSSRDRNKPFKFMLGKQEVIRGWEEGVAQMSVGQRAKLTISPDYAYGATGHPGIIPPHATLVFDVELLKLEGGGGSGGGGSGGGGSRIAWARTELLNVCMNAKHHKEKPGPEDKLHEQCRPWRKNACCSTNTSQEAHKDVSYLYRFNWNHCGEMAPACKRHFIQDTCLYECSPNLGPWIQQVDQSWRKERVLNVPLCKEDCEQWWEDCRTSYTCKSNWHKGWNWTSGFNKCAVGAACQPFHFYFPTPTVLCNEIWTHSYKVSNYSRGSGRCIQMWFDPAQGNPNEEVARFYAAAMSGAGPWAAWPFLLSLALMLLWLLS

Molecule: COc1cc2cc(c1Cl)N(C)C(=O)C[C@H](OC(=O)[C@H](C)N(C)C(=O)CCC(C)(C)SSCCNC(=S)Nc1cccc3c1C(=O)OC31c3ccc(O)cc3Oc3cc(O)ccc31)C1(C)O[C@H]1[C@H](C)C1CC(O)(NC(=O)O1)[C@H](OC)/C=C\C=C(\C)C2 (stereo partly drawn) [FITC-DM4]
- killing of 4M5.3FR+ human T cells ([1]; 2 h incubation, read after 72 h): specifically kill
- killing of 4M5.3FR+ population in mixed human T cell culture ([2]; 4M5.3FR+ cells, increasing concentration): specifically kill the 4M5.3FR+ population
- killing of 4M5.3FR- cells in mixed human T cell culture ([2]; 4M5.3FR- cells, high concentration, bystander effect): killed also through released drugs and bystander effect at high concentration

Molecule: Cc1nc(Nc2ncc(C(=O)Cc3c(C)cccc3Cl)s2)cc(N2CCN(CCOC(=O)OCCSSCCNC(=S)Nc3ccc4c(c3)C(=O)OC43c4ccc(O)cc4Oc4cc(O)ccc43)CC2)n1 [FITC-Dasatinib]
- lysis effect of FMC63+4M5.3FR+ hT cell towards Raji cell [3]: decrease the lysis effect

Molecule: CO[C@H]1C[C@@H](C)[C@@]2(O)O[C@H]1[C@H](OC)C[C@H](C)C/C(C)=C\[C@H](C/C=C/c1ccc(C(=O)NCCCOCCOCCOCCCNC(=O)c3ccc(-c4c5ccc(=[N+](C)C)cc-5oc5cc(N(C)C)ccc45)c(C(=O)O)c3)cc1)C(=O)C[C@H](O)[C@@H](C)[C@@H](/C(C)=C/[C@@H]1CC[C@@H](O)[C@H](OC)C1)CC(=O)C1CCCCN1C(=O)C2=O (stereo partly drawn) [FK506-Rhodamine]
- binding of FK506-Rhodamine in the presence of FA ([4]; FF3 (3GS linker) compared to FF1, 10 nM FA): preserves the binding

Molecule: C=CC[C@@H]1/C=C(\C)C[C@H](C)C[C@H](OC)[C@H]2O[C@@](O)(C(=O)C(=O)N3CCCC[C@H]3C(=O)O[C@H](/C(C)=C/[C@@H]3CC[C@@H](O)[C@H](OC)C3)[C@H](C)[C@@H](O)CC1=O)[C@H](C)C[C@@H]2OC [FK506]
- Kd [5]: ~104 nM

Molecule: Nc1nc(=O)c2nc(CNc3ccc(C(=O)N[C@@H](CCC(=O)O)C(=O)O)cc3)cnc2[nH]1 [Folate acid]
- concentration at which Folate acid totally abolishes FK506-Rhodamine binding ([6]; FKBPFR1GS fusion protein): 50 nM
- concentration at which Folate acid blocks the binding of FK506-Rhodamine ([6]; FKBPFR1GS fusion protein, lowest blocking concentration): ≥ 10 pM
- competition of FA-Tubulysin killing effect by FA [7]: blocks the effect

Molecule: COc1ccc(CCC(OC(=O)C2CCCCN2C(=O)C(=O)C(C)(C)C)c2cccc(NC(=O)CCC(=O)NCCOCCOCCOCCNC(=S)Nc3ccc(-c4c5ccc(=O)cc-5oc5cc(O)ccc45)c(C(=O)O)c3)c2)cc1OC (stereo not drawn) [SLF-FITC]
- Kd ([4]; FKBPFR3GS fusion receptor stably expressed on human T cell, 30 min, 4 degree): 62 nM

Molecule: CCC(C)(C)C(=O)C(=O)N1CCCC[C@H]1C(=O)O[C@H](CCc1ccc(OC)c(OC)c1)c1cccc(OCC(=O)O)c1 [SLF]
- times lower binding affinity to FKBPFR fusion receptor compared to parent ligand FK506 ([4]; SLF vs FK506): 10 times
- competition of SLF-FITC binding by free SLF ([4]; free SLF 100×, preincubation): blocks SLF-FITC binding; also recorded: blocks this binding

Molecule: FITC sodium
- competition of receptor mediated killing effect by free FITC sodium ([1]; 100× preincubation): blocks the receptor mediated killing effect

Molecule: OTL38
- FRET: FK506-Rhodamine intensity after binding to OTL38 ([6]; FKBPFR1GS jurkat cell, FK506-Rhodamine donor, OTL38 acceptor): decreased FK506-Rhodamine intensity

B1: 4M5.3: scFv against FITC, SEQ ID NO:19 (protein)
scFv: DVVMTQTPLSLPVSLGDQASISCRSSQSLVHSNGNTYLRWYLQKPGQSPKVLIYKVSNRVSGVPDRFSGSGSGTDFTLKINRVEAEDLGVYFCSQSTHVPWTFGGGTKLEIKSSADDAKKDAAKKDDAKKDDAKKDGGVKLDETGGGLVQPGGAMKLSCVTSGFTFGHYWMNWVRQSPEKGLEWVAQFRNKPYNYETYYSDSVKGRFTISRDDSKSSVYLQMNNLRVEDTGIYYCTGASYGMEYLGQGTSVTVSS
modifications: A synthetic scFv against FITC 4M5.3(Kd = 200pM)
- Kd [8]: 0.2 nM
